Here are results for four compounds from patent US20130158070A1, “CONJUGATES OF POLYUNSATURATED FATTY ACIDS AND AMINE-CONTAINING COMPOUNDS AND USES THEREOF” (priority 2010, published 2013).

Structures are written as SMILES.

Experiment [1] relates to DNBS-induced colitis. The experiment can be described thus: DNBS-induced experimental colitis in mice, oral administration. In kind it is in vivo. Particulars: day four after DNBS, MWL001 50 mg/kg oral daily. The procedure: In this study, the effect of MWL001 on pro-inflammatory mediators in DNBS-induced experimental colitis in mice was evaluated. In particular it was observed that there was no expression of TNF-α, CD4, TGF-13, CD25 in the colon tissue from sham-treated mice. MWL001 and DEX were administered orally and daily starting at six hours after the DNBS challenge.
Colitis was induced with a very low dose of 2,4-dinitrobenzene sulfonic acid (DNBS) (4 mg per mouse) by using a modification of the method first described in mice. […] Mice were anesthetized by Enflurane. DNBS (4 mg in 100 μl of 50% ethanol) was injected into the rectum through a catheter inserted 4.5 cm proximally to the anus. The carrier alone (100 μl of 50% ethanol) was administered in control experiments. Thereafter, the animals were kept for 15 minutes in a Trendelenburg position to avoid reflux. […] On Day four, the animals were weighed and anaesthetized with chloral hydrate, and their abdomen was opened by a midline incision. The colon was removed, freed from surrounding tissues, opened along the antimesenteric border and processed for histology.
TNF-α and IL-6 levels were evaluated and colon tissues collected at four days after DNBS administration. Briefly, portions of terminal colon were homogenized as previously described in phosphate-buffered saline (PBS, ICN Biomedicals, Milan, Italy) containing two mmol/L of phenyl-methyl sulfonyl fluoride (PMSF, Sigma Chemical Co.). The assay was carried out using a colorimetric, commercial kit (R&D system Milan, Italy) according to the manufacturer instructions. All cytokines determinations were performed in duplicate serial dilutions.
At four days after DNBS administration, colon tissues were fixed in 10% (w/v) PBS-buffered formaldehyde and 7 μm sections were prepared from paraffin embedded tissues. After deparaffinization, endogenous peroxidase was quenched with 0.3% (v/v) hydrogen peroxide in 60% (v/v) methanol for 30 min. The sections were permeabilized with 0.1% (w/v) Triton X-100 in PBS for 20 min. Non-specific adsorption was minimized by incubating the section in 2% (v/v) normal goat serum in PBS for 20 min. Endogenous biotin or avidin binding sites were blocked by sequential incubation for 15 min with biotin and avidin (Vector Laboratories, Burlingame, Calif.), respectively. Sections were incubated overnight with: 1) purified polyclonal antibody directed towards CD4 (Santa Cruz Biotechnology, 1:500 in PBS, v/v) or 2) with purified anti-CD25 (Santa Cruz Biotecnology 1:500 in PBS, w/v) or 3) with anti- TNF-α polyclonal antibody (Santa Cruz Biotechnology, N-19:sc-1350, 1:500 in PBS, v/v) or 4) with anti-TGF-β polyclonal antibody (Santa Cruz, 1:500 in PBS, v/v).
Sections were washed with PBS, and incubated with a secondary antibody. Specific labelling was detected with a biotin-conjugated goat anti-rabbit IgG and avidin-biotin peroxidase complex (Vector Laboratories, Burlingame, Calif.).

Experiment [2] concerns oxazolone-induced allergic dermatitis. Put plainly: Murine oxazolone-induced allergic dermatitis. In kind it is in vivo, mice. Particulars: hematoxylin and eosin stained sections. The source says: An allergic form of contact dermatitis can be induced in mice by repeated epicutaneous application of the chemical sensitizer oxazolone. This leads to local augmented thickness and weight increase of the skin area where the rechallenge was applied; from the histological point of view, oxazolone-induced dermatitis is characterized by severe mononuclear cell infiltration of the dermis with in situ production of the type 1 proinflammatory cytokines TNF-alpha, IL-1alpha and IFN-gamma. These well-defined mechanistic pathways of inflammatory skin damage make oxazolone-dermatitis a useful in vivo tool for pathogenic studies and a pharmacodynamic parameter to screen drugs of potential utility in counteracting type 1 cytokine dependent cutaneous immunoinflammatory responses such as those found in some forms of bullous disorders, cutaneous vasculitis and psoriasis.
The efficacy of MWL001 in the treatment of Murine oxazolone-induced allergic dermatitis was evaluated. MWL001 and DEX were administered one hour after the second challenge with oxazolone.
The mice were sensitized on day 0 by a single application of 10 ∞l of 2% oxazolone (Sigma Chimica, Milan, Italy) in ethanol to the inner and outer surface of the left ear. The disease was elicited by local rechallenge on day 7 with 15% oxazolone. The right ear was treated with the vehicle of oxazolone (acetone). Eighteen hours after […] the mice are sacrificed under ether anesthesia and both the right and left ears were excised.
Inflammation was assessed as the percentage increase in ear thickness and/or ear weight in the treated left ear vs. the vehicle-treated right ear. Ear thickness was measured with a digital calliper. The extent of the inflammation was quantified as follows: ear swelling (%)=100×(a−b)/b, where a is thickness/weight of the left (treated) ear and b is the thickness/weight of the right (untreated) ear.
Ear tissue samples were fixed with 4% formaldehyde in phosphate-buffered saline (PBS) and embedded in paraffin. Thereafter, 6-μm sections were deparaffinized with xylene, stained with hematoxylin-eosin and observed with a Zeiss microscope (Jena, Germany).

The test system of experiment [3] is collagen induced arthritis. Put plainly: Collagen induced arthritis (CIA), arthritis score, paw thickness, body weight. In kind it is in vivo, DBA/1J mice. Particulars: 50 mg/kg IP; for day from which arthritis score (AS) increases: 3 times a week, 12 administrations; for CIA development: overall conclusion; for arthritis thickness index (ATI) increase: from day 0 to day 70, groups 1M DHA-Tau, 2M DHA, 4M Ibuprofen. The procedure:
In a different study, 34 male 8-10 weeks old DBA/1J mice were used. Animals were fed ad libitum a commercial rodent diet (Teklad Certified Global 18% Protein Diet cat #: 106S8216). Animals had free access to acidified drinking water (pH between 2.5 and 3.0) obtained from the municipality supply.
The effect of MWL-002 (conjugate of DHA and taurine) was tested and compared to that of Ibuprofen. Cremophore EL was used as a vehicle.
On day 0, each mouse was anesthetized by inhalation of 3% isofluorane and injected intradermally at the base of the tail with 0.1 ml of emulsion containing 100 μg collagen, using a 1-ml glass syringe with a 26-guade needle. Booster injection was performed at day 15 to the same injection site.
The tested materials were administered 3 times a week, via IP for a total of 12 administrations starting on day 1.
Observations for clinical score were performed twice weekly until study termination.
The severity of arthritis was scored based on the level of inflammation in each of the four paws and recorded as one of five grades according to the following:
Hind paw thickness (edema) was measured by digital caliper once a week until Day 14 and thereafter twice weekly and prior to study termination. Two cross sectional areas were marked, one on the paw and the other at the ankle (tarsal joint). Two measurements were made on each section, perpendicular to each other. The results obtained were calculated as the average areas of both hind limbs per animal.
Body weight was measured prior to dosing, during the study twice a week and prior to study termination.

Experiment [4] addresses T1, COX-2 (Homo sapiens, UniProt P35354).
T1 sequence (P35354 18-604): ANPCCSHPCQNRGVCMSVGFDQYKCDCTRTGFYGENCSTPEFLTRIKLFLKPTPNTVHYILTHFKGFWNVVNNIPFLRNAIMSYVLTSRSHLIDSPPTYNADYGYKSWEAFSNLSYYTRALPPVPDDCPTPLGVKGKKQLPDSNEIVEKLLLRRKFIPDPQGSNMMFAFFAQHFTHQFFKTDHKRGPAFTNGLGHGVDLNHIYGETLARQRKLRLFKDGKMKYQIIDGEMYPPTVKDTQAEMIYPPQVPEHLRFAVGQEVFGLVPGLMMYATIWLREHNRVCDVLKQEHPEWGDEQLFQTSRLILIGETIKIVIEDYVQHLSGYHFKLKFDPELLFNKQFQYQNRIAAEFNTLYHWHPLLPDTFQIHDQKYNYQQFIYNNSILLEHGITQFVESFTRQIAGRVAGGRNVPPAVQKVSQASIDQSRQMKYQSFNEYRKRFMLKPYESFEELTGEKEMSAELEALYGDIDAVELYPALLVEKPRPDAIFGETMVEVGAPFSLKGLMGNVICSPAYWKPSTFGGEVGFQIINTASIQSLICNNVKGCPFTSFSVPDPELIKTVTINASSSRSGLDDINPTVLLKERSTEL
The experiment can be described thus: COX-2 inhibition, enzyme immunoassay (EIA). In kind it is biochemical. To be noted: ratio of COX-1 IC50 to COX-2 IC50. The procedure:
Exemplary conjugates as described herein were tested in vitro for inhibition of COX-1 and COX-2, using an enzyme immunoassay (EIA), as follows.
Cyclooxygenase catalyzes the first step in the biosynthesis of arachidonic acid (AA) to PGH2. PGF2α, produced from PGH2 by reduction with stannous chloride, is measured by enzyme immunoassay (ACETM competitive EIA).
Stock solutions of test compounds were dissolved in a minimum volume of DMSO. Briefly, to a series of supplied reaction buffer solutions (960 μl, 0.1M Tris-HCl pH 8.0 containing 5 mM EDTA and 2 mM phenol) with either COX-1 or COX-2 (10 μl) enzyme in the presence of heme (10 μl) were added 10 μl of various concentrations of test drug solutions (0.01, 0.1, 1, 10, 50, and 100 μM in a final volume of 1 ml). These solutions were incubated for a period of 5 minutes at 37° C. after which 10 μL of AA (100 μM) solution were added and the COX reaction was stopped by the addition of 50 μl of 1M HCl after 2 minutes. PGF2α, produced from PGH2 by reduction with stannous chloride was measured by enzyme immunoassay.
This assay is based on the competition between PGs and a PG-acetylcholinesterase conjugate (PG tracer) for a limited amount of PG antiserum. The amount of PG tracer that is able to bind to the PG antiserum is inversely proportional to the concentration of PGs in the wells since the concentration of PG tracer is held constant while the concentration of PGs varies. The concentration of the test compound causing 50% inhibition (IC50, μM) was calculated from the concentration-inhibition response curve (duplicate determinations).

Consider `C[C@@H]1C[C@H]2[C@@H]3CCC4=CC(=O)C=C[C@]4(C)[C@@]3(F)[C@@H](O)C[C@]2(C)[C@@]1(O)C(=O)CO` [DEX, dexamathasone, reference compound], for which, in experiment [1] (colorimetric kit), the IL-6 colon levels entry is given as “significant reduction” and the TNF-α colon levels result is listed as “significant reduction”. In experiment [1] (immunostaining), the “expression of CD4 in colon tissue” value was “significantly reduced”, the “expression of CD25 in colon tissue” value was “significantly reduced”, the “expression of TGF-β in colon tissue” value is “significantly reduced” and the “expression of TNF-α in colon tissue” value is given as “significantly reduced”. For the same compound, in experiment [2], the “histology: ear thickness and inflammatory cells in epidermis and dermis” value is “markedly reduced”.

In the case of `CC/C=C\C/C=C\C/C=C\C/C=C\C/C=C\C/C=C\CCC(=O)O` [DHA, all-cis-4,7,10,13,16,19-docosahexaenoic acid], in experiment [3], the “day from which arthritis score (AS) increases” value was determined as 40 days, the CIA development result is reported as “not substantially effective” and the “arthritis thickness index (ATI) increase” value is reported as 180%.

Regarding `CC(C)Cc1ccc(C(C)C(=O)O)cc1` (centres unmarked) [Ibuprofen], in experiment [3], the “day from which arthritis score (AS) increases” value was determined as 40 days, the CIA development result is “not substantially effective” and the “arthritis thickness index (ATI) increase” value was determined as 190%.

For the compound `CCCCCCCC/C=C\CCCCCCCC(=O)n1cc(CC(=O)O)c2cc(O)ccc21` [MWL-007, N-oleoyl-5-hydroxy-indol-3-yl-acetic acid], the “Ratio (COX ½)” value in experiment [4] is given as 15.83.
